{"source": "paper PMC9970268", "about": "(Cancer Research Communications, 2022)", "key": {"[1]": {"tested_on": "Cdc42", "conditions": "metastatic breast cancer cells; cited from earlier work"}, "[2]": {"tested_on": "HER-2–positive (HER2+) tumor", "conditions": "immunocompromised mice; cited from earlier work"}, "[3]": {"conditions": "mice; cited from earlier work"}, "[4]": {"assay": "in vivo", "conditions": "rats and dogs"}, "[5]": {"assay": "GLP toxicity studies", "conditions": "GLP data from a Contact Research Organization; rodents or dogs"}, "[6]": {"tested_on": "GFP-HER2-BM cells", "assay": "Apoptosis assay (Caspase-Glo3/7)", "assay_type": "cell-based, human", "conditions": "500 nmol/L, 48 hours", "experimental": "(§1) Apoptosis was measured using a Caspase-Glo3/7 Luminescence Assay Kit as per manufacturer's instructions (Promega, Corp.), as described previously ([23]). Briefly, Caspase-3/7 Glo reagent was added and incubated at room temperature for 60 minutes and caspase-3/7 activities were determined by detecting luminescence using Tecan Microplate Reader M100 (Tecan). Data were calculated as fold change from vehicle. (n = 3 biologic replicates: with three technical replicates each)."}, "[7]": {"tested_on": "MDA-MB-231 cells", "assay": "Apoptosis assay (Caspase-Glo3/7)", "assay_type": "cell-based, human", "conditions": "500 nmol/L, 48 hours", "experimental": "as §1"}, "[8]": {"tested_on": "MDA-MB-468 cells", "assay": "Apoptosis assay (Caspase-Glo3/7)", "assay_type": "cell-based, human", "conditions": "500 nmol/L, 48 hours", "experimental": "as §1"}, "[9]": {"tested_on": "MDA-MB-231, GFP-HER2-BM, and MDA-MB-468 cells", "assay": "Apoptosis assay (Caspase-Glo3/7), cell line not specified", "assay_type": "cell-based, human", "conditions": "500 nmol/L, 48 hours", "experimental": "as §1"}, "[10]": {"tested_on": "GFP-HER2-BM cells", "assay": "Transwell directed migration of attached and detached cells", "assay_type": "cell-based, human", "conditions": "treated 24 hr", "experimental": "migration. Cells treated for 24hr and the attached and detached cell populations recovered and equal cell numbers were seeded on Transwells with […] and incubated for 7 hr.\nCells that migrated to the underside of the membrane were stained with propidium iodide and imaged at 20X. Representatives images are a result from two technical replicates and three […]\n(1 picture or pasted object on this page, not shown here)"}, "[11]": {"target": "T1, Rac1(G15A) interaction with Vav2 (Homo sapiens, UniProt P63000, G15A)", "T1 construct": "purchased Cell Biolabs; host or cells: GEF from MDA-MB-231 lysate", "assay": "Rac1 (G15A) pulldown assay, Vav2", "assay_type": "binding", "conditions": "250 nmol/L, 1 hour preincubation, MDA-MB-231 cell lysates", "experimental": "MDA-MB-231 cells were lysed in 1% Triton X-100, 20 mmol/L HEPES, pH 7.4, 150 mmol/L NaCl, 5 mmol/L MgCl2, and protease inhibitors, and processed as described previously ([20]). Equal amounts of protein from cleared lysates were incubated for 1 hour at 4°C with glutathione-agarose beads conjugated to GST-Rac1 and GST-Cdc42(G15A) nucleotide-free mutant (Cell Biolabs) that were preincubated (for 1 hour) with vehicle or Rac/Cdc42 inhibitors, as indicated. The beads were washed, and pulldowns were immunoblotted for Vav2 or Ect2."}, "[12]": {"target": "T2, Rac1 (Homo sapiens, UniProt P63000)", "assay": "Nucleotide association assay, catalyzed by Vav2", "assay_type": "biochemical", "set-up": "purchased Cytoskeleton, Inc", "conditions": "2 or 10 μmol/L, N-MAR-GTP", "method": "(§2) The nucleotide loading on purified Rho GTPases was monitored using a fluorophore-based Rho GEF Exchange Assay Kit as per manufacturer's instructions (Cytoskeleton, Inc.). Drugs were diluted in exchange buffer and incubated with Rac1, Cdc42, or RhoA. […] After the initial five readings (T0), GEFs (Dbs or Vav2) or Ethylenediaminetetraacetic acid (EDTA) was added to stimulate exchange and readings were obtained every 30 seconds for at least 60 cycles."}, "[13]": {"target": "T2, Rac1", "assay": "Nucleotide association assay, induced by EDTA", "conditions": "read-out: inhibition of EDTA-induced loading of N-MAR-GTP on Rac1", "method": "as §2\n(§3) After initial five readings, the exchange factor Dbs was added to catalyze the loading of N-\n(§4) B. 2µM Rac1 was incubated with 0 or 2 µM"}, "[14]": {"target": "RhoA (Homo sapiens, UniProt P61586)", "sequence (P61586 whole entry)": "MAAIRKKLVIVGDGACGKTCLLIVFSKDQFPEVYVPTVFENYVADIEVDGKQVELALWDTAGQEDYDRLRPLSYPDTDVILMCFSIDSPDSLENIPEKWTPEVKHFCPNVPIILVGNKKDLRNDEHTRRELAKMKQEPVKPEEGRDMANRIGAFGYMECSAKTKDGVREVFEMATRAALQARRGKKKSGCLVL", "assay": "Nucleotide association assay, catalyzed by Dbs", "conditions": "2 μmol/L, N-MAR-GTP", "method": "as §2, §3, §4"}, "[15]": {"target": "T2, Rac1", "assay": "Rac activation pulldown assay in MDA-MB-231 cells", "conditions": "MDA-MB-231, 24 hours, various concentrations", "method": "(§5) Rac-GTP and Cdc42-GTP were detected using Rac Activity Assay or Cdc42 Activity Assay, as per manufacturer's instructions (Cell Signaling Technology). Briefly, total cell lysates were quantified and added equally to PAK-p21–binding domain conjugated Sepharose beads. After 1 hour of incubation, beads were washed, bound proteins extracted in sample buffer, and Rac1-GTP and Cdc42-GTP detected by Western blot analysis using Rac1, Rac1b, or Cdc42 antibody. (n = 3 biological replicates).\n(§6) Total cell lysates or pulldowns were Western blotted using routine procedures. The primary antibodies used were anti-Rac (Cell Signaling Technology), anti-Cdc42 (Abcam), anti-PAK1+PAK2+PAK3 (Cell Signaling Technology), anti-pPAK1 (T423)/PAK2 (T402; Abcam), anti-PAK1 + PAK2 + PAK3 (phospho T423; Abcam), Rac1B, and β-actin (Millipore-Sigma)."}, "[16]": {"target": "Rac1B splice variant (Homo sapiens, UniProt P63000)", "assay": "Rac1B activation pulldown assay in MDA-MB-468 cells", "conditions": "MDA-MB-468, 500 nmol/L, 24 hours", "method": "as §5, §6"}, "[17]": {"target": "Cdc42 (Homo sapiens, UniProt P60953)", "sequence (P60953 whole entry)": "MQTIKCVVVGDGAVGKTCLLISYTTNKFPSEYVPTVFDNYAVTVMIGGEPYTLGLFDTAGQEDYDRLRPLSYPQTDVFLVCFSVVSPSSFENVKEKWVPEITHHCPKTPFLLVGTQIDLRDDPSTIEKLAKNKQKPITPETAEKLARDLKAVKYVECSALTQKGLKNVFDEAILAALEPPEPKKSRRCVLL", "assay": "Cdc42 activation pulldown assay in MDA-MB-231 cells", "conditions": "MDA-MB-231, 24 hours", "method": "as §5, §6"}, "[18]": {"target": "T2, Rac1", "assay": "Rac activation pulldown assay (PAK p21-binding domain)", "conditions": "GFP-HER2-BM cells, 250 nmol/L, 24 hours", "method": "as §5, §6"}}}
{"smiles": "CCn1c2ccccc2c2cc(-n3nncc3-c3ccccc3)ccc21", "note": "[MBQ-167]", "values": [{"measurement": "IC50", "setting": "[1]", "result": 78, "unit": "nM"}, {"measurement": "inhibition of HER2+ tumor growth and metastasis to all organs", "setting": "[2]", "result": "approximately 90%"}, {"measurement": "half-life in plasma", "setting": "[3]", "result": "approximately 2.5 hours"}, {"measurement": "half-life in tumor tissue", "setting": "[3]", "result": "approximately 8 hours"}, {"measurement": "NOAEL", "setting": "[4]", "result": 1000, "unit": "mg/kg"}, {"measurement": "dose with no apparent toxicity", "setting": "[5]", "result": "up to 1,000 mg/kg"}]}
{"smiles": "CCn1c2ccccc2c2cc(-n3nncc3-c3cccc(OC)c3)ccc21", "note": "[MBQ-168]", "values": [{"measurement": "Caspase-3/7 activity", "setting": "[6]", "result": "significantly increased Caspase-3/7 activity"}, {"measurement": "Caspase-3/7 activity", "setting": "[7]", "result": "significantly increased Caspase-3/7 activity"}, {"measurement": "Caspase-3/7 activity", "setting": "[8]", "result": "significantly increased Caspase-3/7 activity"}, {"measurement": "caspase-3/7 activity compared with the vehicle", "setting": "[9]", "result": "three to five times"}, {"measurement": "directed migration", "setting": "[10]", "result": "both cell types were inhibited"}, {"measurement": "Rac1(G15A) interaction with Vav2", "setting": "[11]", "result": "no effect"}, {"measurement": "inhibition of GTP loading on Rac1 catalyzed by Vav2", "setting": "[12]", "result": "≥ 30", "unit": "%"}, {"measurement": "inhibition at 2 µM", "setting": "[13]", "result": "~50", "unit": "%"}, {"measurement": "Dbs-catalyzed exchange of RhoA", "setting": "[14]", "result": "did not affect"}, {"measurement": "Rac.GTP incorporation", "setting": "[15]", "result": "inhibits Rac.GTP incorporation in a dose-dependent manner"}, {"measurement": "activation and expression of Rac1B", "setting": "[16]", "result": "inhibited activation of Rac1B, as well as expression"}, {"measurement": "Cdc42 activity", "setting": "[17]", "result": "reduced in a dose-dependent manner"}, {"measurement": "Rac1-GTP", "setting": "[18]; attached and detached cell population", "result": "complete depletion"}, {"measurement": "reduction of Rac1 activation (Rac1.GTP)", "setting": "[18]; attached cell population", "result": "approximately 100%"}, {"measurement": "decrease in Rac1 expression", "setting": "[18]; detached cell population", "result": "approximately 100%"}]}
